According to patent US20170071204A1, “ACTIVE COMPOUND COMBINATIONS HAVING IN[…]” (priority 2014, published 2017):

How the values were obtained:
Assay type in all cases: in vivo
[1] = system: two spotted spidermite (Tetranychus urticae); experiment: Tetranychus urticae spray test OP-resistant (French bean leaf disks); conditions: for Efficacy in % after 2 d: mortality after 2 d
Text: (§1) The expected activity for a given combination of two active compounds can be calculated according to S. R. Colby, Weeds 15 (1967), 20-22 as follows:
(§2) • X is the kill rate, expressed in % of the untreated control, when active compound A is applied at an application rate of m g/ha or at a concentration of m ppm, • Y is the kill rate, expressed in % of the untreated control, when active compound B is applied at an application rate of n g/ha or at a concentration of n ppm and • E is the kill rate, expressed in % of the untreated control, when active compounds A and B is applied at application rates of m and n g/ha or at a concentration of m and n ppm, then
(§3) If the observed insecticidal efficacy of the combination is higher than the one calculated as “E”, then the combination of the two compounds is more than additive, i.e., there is a synergistic effect.
(§4) Solvent: 78.0 parts by weight acetone • 1.5 parts by weight dimethylformamide Emulsifier: alkylarylpolyglycol ether
(§5) To produce a suitable preparation of active compound, 1 part by weight of active compound is mixed with the stated amount of solvents and is diluted with water, containing an emulsifier concentration of 1000 ppm, to the desired concentration. To produce a suitable preparation of a spore suspension the spores are diluted with emulsifier containing water to the desired concentration. Further test concentrations are prepared by dilution with emulsifier containing water.
French bean (Phaseolus vulgaris) leaf disks which are heavily infested with all stages of the two spotted spidermite (Tetranychus urticae), are sprayed with a preparation of the active ingredient of the desired concentration.
After the specified period of time, mortality in % is determined. 100% means all spider mites have been killed and 0% means none of the spider mites have been killed. The mortality values determined thus are recalculated using the Colby-formula (see sheet 1).

[2] = system: mustard beetle larvae (Phaedon cochleariae); experiment: Phaedon cochleariae spray test (Chinese cabbage leaf disks); conditions: mortality after 6 d
Text: as §1, §2, §3
Solvent: 78.0 parts by weight of acetone • • 1.5 parts by weight of dimethylformamide Emulsifier: alkylarylpolyglycol ether
as §5
Chinese cabbage (Brassica pekinensis) leaf disks are sprayed with a preparation of the active ingredient of the desired concentration. Once dry, the leaf disks are infested with mustard beetle larvae (Phaedon cochleariae).
After the specified period of time, mortality in % is determined. 100% means all beetle larvae have been killed and 0% means none of the beetle larvae have been killed. The mortality values determined thus are recalculated using the Colby-formula (see sheet 1).

[3] = system: green peach aphid (Myzus persicae); experiment: Myzus persicae spray test (Chinese cabbage leaf disks); conditions: for Efficacy in % after 6 d: mortality after 6 d; for Efficacy in % after 1 d: mortality after 1 d
Text: as §1, §2, §3, §4, §5
Chinese cabbage (Brassica pekinensis) leaf disks infected with all instars of the green peach aphid (Myzus persicae), are sprayed with a preparation of the active ingredient of the desired concentration.
After the specified period of time, mortality in % is determined. 100% means all aphids have been killed; 0% means none of the aphids have been killed. The mortality values determined thus are recalculated using the Colby-formula (see sheet 1).

With `N#CCNC(=O)c1cnccc1C(F)(F)F` [Flonicamid] the “Efficacy in % after 2 d” value ([1]; 4 g ai/ha) was 0%.
In the case of `O=C(/N=c1\ccccn1Cc1ccc(Cl)nc1)C(F)(F)F` [N-[(2E)-1-[(6-chloropyridin-3-yl)methyl]pyridin-2(1H)-ylidene]-2,2,2-trifluoroacetamide], the “Efficacy in % after 6 d” value ([2]; 100 g ai/ha) is reported as 0%.
With Milbemectin the “Efficacy in % after 6 d” value ([3]; 4 g ai/ha) was 0%.
With `O=C1C=C(N(Cc2ccc(Cl)nc2)CC(F)F)CO1` [Flupyradifurone] the “Efficacy in % after 2 d” value ([1]; 0.8 g ai/ha) was 0% and the “Efficacy in % after 2 d” value ([1]; 4 g ai/ha) was 0%.
With `O=C(NC(=O)c1c(F)cccc1F)Nc1ccc(OC(F)(F)C(F)OC(F)(F)F)c(Cl)c1` (centres unmarked) [Novaluron] the “Efficacy in % after 6 d” value ([2]; 100 g ai/ha) was 0%.
For `O=C(NC(=O)c1c(F)cccc1F)Nc1cc(Cl)c(OC(F)(F)C(F)C(F)(F)F)cc1Cl` (centres unmarked) [Lufenuron], the “Efficacy in % after 2 d” value ([1]; 20 g ai/ha) was 0%.
Lepimectin was tested, and the “Efficacy in % after 1 d” value ([3]; 4 g ai/ha) was 0%, the “Efficacy in % after 6 d” value ([3]; 4 g ai/ha) was 0% and the “Efficacy in % after 1 d” value ([3]; 20 g ai/ha) was 0%. The “Efficacy in % after 6 d” value ([3]; 20 g ai/ha) was 0%.
In the case of `CCOP(=S)(OCC)Oc1nc(Cl)c(Cl)cc1Cl` [Chlorpyrifos], the “Efficacy in % after 6 d” value ([1]; 4 g ai/ha, mortality after 6 d) is reported as 0% and the “Efficacy in % after 2 d” value ([1]; 20 g ai/ha) is reported as 0%.
With Abamectin the “Efficacy in % after 6 d” value ([2]; 0.8 g ai/ha) was 0%.
